Measurements published in publication PMC12519464, “Dual-Site Inhibition of SARS-CoV‑2 RNA-Dependent RNA Polymerase by Small Molecules Able to Block Viral Replication Identified through a Computer-Aided Drug Discovery Approach” (ACS Infectious Diseases, 2025).

biological target: SARS-CoV-2 nsp12/7/8 (RTC) complex (Severe acute respiratory syndrome coronavirus 2, UniProt P0DTD1); assay: biochemical; type: biochemical; conditions: not given

Row | SMILES | IC50
1 | CC(C)(O)/C=C/C(=O)[C@](C)(O)[C@H]1[C@H](O)C[C@@]2(C)[C@@H]3CC=C4[C@@H](C[C@H](O)C(=O)C4(C)C)[C@]3(C)C(=O)C[C@]12C [Cucurbitacin D] | > 100 µM
2 | CC1=C(/C=C/C(C)=C/C=C/C(C)=C/C(=O)Nc2ccc(O)cc2)C(C)(C)CCC1 [Fenretinide, reference compound] | > 100 µM
3 | C=C(C)[C@@H]1CC[C@]2(C=O)CC[C@]3(C)[C@H](CC[C@@H]4[C@@]5(C)CC[C@H](O)C(C)(C)[C@@H]5CC[C@]43C)[C@@H]12 [Betulinaldehyde] | > 100 µM
4 | C[C@H]1[C@H](C)CC[C@]2(C(=O)O)CC[C@]3(C)C(=CC[C@@H]4[C@@]5(C)CCC(=O)C(C)(C)[C@@H]5CC[C@]43C)[C@H]12 [Ursonic acid] | 26.5 ± 12.6 µM
5 | C[C@@H]1CC[C@]2(C(=O)O)CC[C@]3(C)C(=CC[C@@H]4[C@@]5(C)CC[C@H](O)C(C)(C)[C@@H]5CC[C@]43C)[C@@H]2[C@]1(C)O [Pomolic acid] | > 100 µM
6 | CC(C)=CCC[C@](C)(O[C@@H]1O[C@H](CO)[C@@H](O)[C@H](O)[C@H]1O)[C@H]1CC[C@]2(C)[C@@H]1[C@H](O)C[C@@H]1[C@@]3(C)CC[C@H](O)C(C)(C)[C@@H]3[C@@H](O)C[C@]12C [Ginsenoside F1] | > 100 µM
7 | C[C@@H]1O[C@@H](O[C@H]2CC[C@]3(C=O)[C@H]4CC[C@]5(C)[C@@H](c6ccc(=O)oc6)CC[C@]5(O)[C@@H]4CC[C@]3(O)C2)[C@H](O)[C@H](O)[C@H]1O[C@@H]1O[C@H](CO)[C@@H](O)[C@H](O)[C@H]1O [Hellebrin] | > 100 µM
8 | CC1(C)CC[C@]2(C(=O)O)CC[C@]3(C)C(=CC[C@@H]4[C@@]5(C)C[C@@H](O)[C@H](O)C(C)(C)[C@@H]5CC[C@]43C)[C@@H]2C1 [Maslinic Acid] | > 100 µM
9 | Oc1cccc(-c2c3nc(c(-c4cccc(O)c4)c4ccc([nH]4)c(-c4cccc(O)c4)c4nc(c(-c5cccc(O)c5)c5ccc2[nH]5)CC4)C=C3)c1 [Temoporfin, reference compound] | > 100 µM
10 | CC(C)C1=CC(=O)[C@](C)([C@H]2[C@H](O)C[C@@]3(C)[C@@H]4CC=C5[C@@H](CC[C@@H](O[C@@H]6OC[C@@H](O)[C@H](O)[C@H]6O[C@@H]6O[C@@H](C)[C@H](O)[C@@H](O)[C@H]6O)C5(C)C)[C@]4(C)C(=O)C[C@]23C)O1 (racemic) [Picfeltarracemin Ia] | > 100 µM
11 | C[C@H]1[C@H](C)CC[C@]2(C(=O)O)CC[C@]3(C)C(=CC[C@@H]4[C@@]5(C)C[C@@H](O)[C@H](O)C(C)(C)[C@@H]5CC[C@]43C)[C@H]12 [Corosolic acid, reference compound] | > 100 µM
12 | CN(C(=O)c1ccc(F)cc1C(F)(F)F)C1CCN(c2nnc(-c3ccnn3C)c3ccccc23)CC1 [Taladegib, reference compound] | > 100 µM
13 | C[C@H]1[C@H](C)CC[C@]2(C)CC[C@]3(C)C(=CC[C@@H]4[C@@]5(C)CC[C@@H](O)[C@](C)(C(=O)O)[C@@H]5CC[C@]43C)[C@H]12 [Beta-Boswellic acid] | 21.1 ± 4.45 µM

same assay, conditions: primer-extension PAGE assay, 150 nM RTC, 5% DMSO, 30 min preincubation at 37 °C; mean and SD of at least 3 independent experiments

Row | SMILES | IC50
14 | CO[C@H]1/C=C/O[C@@]2(C)Oc3c(C)c(O)c4c(O)c(c5c(nc6cc(C)ccn65)c4c3C2=O)NC(=O)/C(C)=C\C=C\[C@H](C)[C@H](O)[C@@H](C)[C@@H](O)[C@@H](C)[C@H](OC(C)=O)[C@@H]1C [Rifaximin, reference compound] | > 100 µM
15 | Cc1ccc(F)cc1C(=O)Nc1ccc(C(=O)N2Cc3cccn3Cc3ccccc32)c(Cl)c1 [Lixivaptan, reference compound] | > 100 µM
16 | C[C@H]1CN(C2COC2)CCN1c1ccc(Nc2cc(-c3ccnc(N4CCn5c(cc6c5CC(C)(C)C6)C4=O)c3CO)cn(C)c2=O)nc1 [Fenebrutinib, reference compound] | > 100 µM
17 | Cc1c(-c2c(F)cc(C(N)=O)c3[nH]c4c(c23)CC[C@H](C(C)(C)O)C4)cccc1-n1c(=O)c2cccc(F)c2n(C)c1=O [BMS-986142, reference compound] | 22.8 ± 3.63 µM
18 | O=C(Nc1nc(-c2cc(Cl)cs2)c(N2CCN(C3CCCCC3)CC2)s1)c1cnc(N2CCC(C(=O)O)CC2)c(Cl)c1 [Avatrombopag, reference compound] | 27.2 ± 7.35 µM
19 | COc1cccc(OC)c1-c1cc(C(=O)NC2(C(=O)O)C3CC4CC(C3)CC2C4)nn1-c1ccnc2cc(Cl)ccc12 (stereo not shown) [Meclinertant, reference compound] | 15.4 ± 2.77 µM
20 | CNc1cccc(NC(=O)N[C@@H]2N=C(c3ccccn3)c3ccccc3N(CC(=O)C(C)(C)C)C2=O)c1 [Sograzepide, reference compound] | > 100 µM
21 | CN1C(=O)c2c(nn(Cc3ccc(-c4cccc(F)n4)cc3)c2Nc2ccccc2)N2C1=N[C@@H]1CCC[C@@H]12 [Lenrispodun, reference compound] | 24.2 ± 8.68 µM
22 | Cc1cnc(C(=O)N[C@H]2CCCCC/C=C\[C@@H]3C[C@@]3(C(=O)NS(=O)(=O)C3CC3)NC(=O)[C@@H]3C[C@@H](Oc4nc5ccccc5c5ccccc45)CN3C2=O)cn1 [Paritaprevir, reference compound] | 42.2 ± 9.97 µM
23 | Nc1nc(Nc2ccc3c(c2)CC[C@@H](N2CCCC2)CC3)nn1-c1cc2c(nn1)-c1ccccc1CCC2 [Bemcentinib, reference compound] | 18.5 ± 3.41 µM

same assay, conditions: read-out: IC50: compound concentration required to inhibit by 50% the SARS-CoV-2 RTC enzymatic activity

Row | SMILES | IC50
24 | CO[C@H]1/C=C/O[C@@]2(C)Oc3c(C)c(O)c4c(c3C2=O)C(=O)C(N2CCCC2)=C(NC(=O)/C(C)=C\C=C\[C@H](C)[C@H](O)[C@@H](C)[C@H](O)[C@H](C)[C@H](O)[C@@H]1C)C4=O [(7S,9E,11S,12S,13S,14S,15S,16R,17S,18S,19E,21Z)-2,13,15,17-tetrahydroxy-11-methoxy-3,7,12,14,16,18,22-heptamethyl-26-pyrrolidin-1-yl-8,30-dioxa-24-azatetracyclo[23.3.1.14,7.05,28]triaconta-1(28),2,4,9,19,21,25-heptaene-6,23,27,29-tetrone] | 46.1 ± 15.6 µM
25 | C[C@@H]1CC[C@@]2(OC1)O[C@H]1C[C@H]3[C@@H]4CC[C@@H]5C[C@@H](O)CC[C@]5(C)[C@H]4CC[C@]3(C)[C@H]1[C@@H]2C [Smilagenin, reference compound] | > 100 µM
26 | C=C(C)[C@@H]1CC[C@]2(C)CC[C@]3(C)[C@H](CC[C@@H]4[C@@]5(C)CC[C@H](OC(C)=O)C(C)(C)[C@@H]5CC[C@]43C)[C@@H]12 [Lupeol Acetate] | > 100 µM
27 | CC(C)(O)[C@H]1CC[C@@](C)([C@H]2CC[C@]3(C)[C@@H]2[C@H](O)C[C@@H]2[C@@]4(C)CC[C@H](O)C(C)(C)[C@@H]4[C@@H](O[C@@H]4O[C@H](CO)[C@@H](O)[C@H](O)[C@H]4O)C[C@]23C)O1 [Pseudoginsenoside Rt5] | > 100 µM
28 | O=C(NCC(O)CNC(=O)/C(=C\c1ccco1)NC(=O)c1ccccc1)/C(=C\c1ccco1)NC(=O)c1ccccc1 [N-[(E)-3-[[3-[[(E)-2-benzamido-3-(furan-2-yl)prop-2-enoyl]amino]-2-hydroxypropyl]amino]-1-(furan-2-yl)-3-oxoprop-1-en-2-yl]benzamide] | 90.1 ± 14 µM
29 | C[C@@H]1CC[C@]2(C(=O)O)CC[C@]3(C)C(=CC[C@@H]4[C@@]5(C)C[C@@H](O)[C@H](O)C(C)(C)[C@@H]5CC[C@]43C)[C@@H]2[C@]1(C)O [Tormentic acid] | > 100 µM
30 | CC(C)(O)CC[C@H]1OC(C)(C)O[C@]1(C)[C@H]1CC[C@@]2(O)C3=CC(=O)[C@@H]4C[C@@H](O)[C@@H](O)C[C@]4(C)[C@H]3CC[C@]12C [20-Hydroxyecdysone 20,22-acetonide] | > 100 µM
31 | Cc1ccc(NC(=O)[C@H]2CCCN(C(=O)c3c(C)cccc3F)[C@H]2c2ccc(NC3CCCC3)cc2)cc1C(F)(F)F [Avacopan, reference compound] | > 100 µM
32 | CC(C)=CCC[C@@](C)(O)[C@H]1CC[C@]2(C)[C@@H]1[C@H](O)C[C@@H]1[C@@]3(C)CC[C@H](O[C@@H]4O[C@H](CO)[C@@H](O)[C@H](O)[C@H]4O)C(C)(C)[C@@H]3CC[C@]12C [20(R)-Ginsenoside Rh2] | > 100 µM
33 | CC(C)C1=C2[C@H]3CC[C@@H]4[C@@]5(C)CC[C@H](OC(=O)CC(C)(C)C(=O)O)C(C)(C)[C@@H]5CC[C@@]4(C)[C@]3(C)CC[C@@]2([C@@H](O)CN(CCN(C)C)Cc2ccc(Cl)cc2)CC1=O [Gsk-2838232, reference compound] | > 100 µM
34 | C[C@H](CC[C@@H](O[C@@H]1O[C@H](CO)[C@@H](O)[C@H](O)[C@H]1O)C(C)(C)O)[C@H]1CC[C@@]2(C)[C@@H]3CC=C4[C@@H](CC[C@H](O[C@@H]5O[C@H](CO)[C@@H](O)[C@H](O)[C@H]5O)C4(C)C)[C@]3(C)[C@H](O)C[C@]12C [Mogroside IIe] | > 100 µM
35 | CC(C)=CCC[C@](C)(O)[C@H]1CC[C@]2(C)[C@@H]1[C@H](O)C[C@@H]1[C@@]3(C)CC[C@H](O)C(C)(C)[C@@H]3CC[C@]12C [(20S)-Protopanaxadiol] | > 100 µM
36 | C[C@@H]1CC[C@@]2(OC1)O[C@H]1C[C@H]3[C@@H]4CC=C5C[C@@H](O[C@@H]6O[C@H](CO)[C@@H](O)[C@H](O)[C@H]6O[C@@H]6O[C@@H](C)[C@H](O)[C@@H](O)[C@H]6O)CC[C@]5(C)[C@H]4CC[C@]3(C)[C@H]1[C@@H]2C [Prosapogenin A] | > 100 µM
37 | CC#C/C(=N/OC[C@H]1COCCN1)c1ccc2ncnc(Nc3ccc(OCc4cccc(F)c4)c(Cl)c3)c2c1 [N-[3-chloro-4-[(3-fluorophenyl)methoxy]phenyl]-6-[(E)-N-[[(3R)-morpholin-3-yl]methoxy]-C-prop-1-ynylcarbonimidoyl]quinazolin-4-amine, reference compound] | > 100 µM
38 | CC1(C)[C@@H](O)CC[C@]2(C)[C@H]3CC=C4[C@@H]5C[C@@]6(C)C[C@H](OC6=O)[C@]5(C)CC[C@@]4(C)[C@]3(C)CC[C@@H]12 [Wilforlide A] | > 100 µM
39 | Cc1cc2c(C(C)C)c(O)c(O)c(C=NCc3ccncc3)c2c(O)c1-c1c(C)cc2c(C(C)C)c(O)c(O)c(C=NCc3ccncc3)c2c1O [3-methyl-5-propan-2-yl-8-(pyridin-4-ylmethyliminomethyl)-2-[1,6,7-trihydroxy-3-methyl-5-propan-2-yl-8-(pyridin-4-ylmethyliminomethyl)naphthalen-2-yl]naphthalene-1,6,7-triol] | 16.1 ± 0.32 µM
40 | O=C(O[C@@H]1Cc2c(O)cc(O)cc2O[C@@H]1c1cc(=O)c(O)c2c(O)c(O)cc([C@H]3Oc4cc(O)cc(O)c4C[C@H]3O)c2c1)c1cc(O)c(O)c(O)c1 [Theaflavin 3-gallate] | 19.8 ± 3.49 µM
